The results in this text go back to paper PMC6194350, “Catalytic Performance of a Class III Old Yellow Enzyme and Its Cysteine Variants” (Frontiers in Microbiology, 2018).

Molecules are shown by their SMILES.

Type in all cases: biochemical
For test [1], the target named is T1, OYERo2a (WT) (Rhodococcus opacus, UniProt A0A1B1KA86).
T1 construct: gene O4328_33150; FMN 1:1; dimer by gel filtration; single Cys25
Kind of test: steady-state kinetics, NADPH consumption at […] nm. Conditions: 50 mM phosphate pH 7.1, 25°C.

The target of test [2] is T2, OYERo2a (WT) (Rhodococcus opacus, UniProt A0A1B1KA86, C25S, form not given).
T2 construct: gene O4328_33150; FMN 1:1; dimer by gel filtration; single Cys25
T2 sequence (A0A1B1KA86 entry or part of it C25S, form open): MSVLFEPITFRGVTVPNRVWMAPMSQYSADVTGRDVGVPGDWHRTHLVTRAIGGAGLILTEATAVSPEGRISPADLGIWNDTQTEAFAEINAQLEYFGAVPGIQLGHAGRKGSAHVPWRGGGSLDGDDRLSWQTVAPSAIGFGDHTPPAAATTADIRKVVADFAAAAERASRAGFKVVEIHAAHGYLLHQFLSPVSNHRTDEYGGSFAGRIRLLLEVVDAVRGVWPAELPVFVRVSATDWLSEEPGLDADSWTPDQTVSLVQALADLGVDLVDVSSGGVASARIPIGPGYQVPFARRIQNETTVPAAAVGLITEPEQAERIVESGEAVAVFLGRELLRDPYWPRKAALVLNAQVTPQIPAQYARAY
Description: steady-state kinetics, NADPH consumption at […] nm. Conditions: 50 mM phosphate pH 7.1, 25°C.

The target of test [3] is T3, OYERo2a (WT) (Rhodococcus opacus, UniProt A0A1B1KA86, C25G, form not given).
T3 construct: gene O4328_33150; FMN 1:1; dimer by gel filtration; single Cys25
T3 sequence (A0A1B1KA86 entry or part of it C25G, form open): as the sequence (A0A1B1KA86 entry or part of it C25S, form open) above, with S25G counted along it
Kind of test: steady-state kinetics, BNAH consumption at […] nm. Conditions: electron donor; 1 mM N-methylmaleimide, 50 mM phosphate pH 7.1, 25°C.

For test [4], the target named is T1, OYERo2a (WT). Kind of test: steady-state kinetics, BNAH consumption at […] nm. The conditions noted are these: electron donor; 1 mM N-methylmaleimide, 50 mM phosphate pH 7.1, 25°C.
Test [5] deals with T4, OYERo2a (WT) (Rhodococcus opacus, UniProt A0A1B1KA86, C25A, form not given).
T4 construct: gene O4328_33150; FMN 1:1; dimer by gel filtration; single Cys25
T4 sequence (A0A1B1KA86 entry or part of it C25A, form open): as the sequence (A0A1B1KA86 entry or part of it C25S, form open) above, with S25A counted along it
Description: steady-state kinetics, BNAH consumption at […] nm. Conditions: electron donor; 1 mM N-methylmaleimide, 50 mM phosphate pH 7.1, 25°C.

For test [6], the target named is T2, OYERo2a (WT). Kind of test: steady-state kinetics, BNAH consumption at […] nm. Conditions: electron donor; 1 mM N-methylmaleimide, 50 mM phosphate pH 7.1, 25°C.
Test [7] concerns the target T4, OYERo2a (WT). Kind of test: steady-state kinetics, NADPH consumption at […] nm. Conditions: 50 mM phosphate pH 7.1, 25°C.
Test [8] concerns the target T1, OYERo2a (WT). Kind of test: residual activity after pre-incubation. The conditions noted are these: covalent (Cys25); 10 mM, 120 min, 50 mM phosphate pH 7.1, 4°C, dark, oxidized enzyme.
Test [9] has as its target T3, OYERo2a (WT). Kind of test: steady-state kinetics, NADPH consumption at […] nm. The conditions noted are these: 50 mM phosphate pH 7.1, 25°C.

T1 sequence (A0A1B1KA86 entry or part of it): as the sequence (A0A1B1KA86 entry or part of it C25S, form open) above, with S25C counted along it

Regarding `O=C1C=CCCC1` [2-cyclohexen-1-one], the Km came out at 3500 µM at OYERo2a (WT) [1] (180 μM NADPH, read-out: WT) and 8900 µM at OYERo2a (WT) [2] (180 μM NADPH, read-out: C25S).
With `NC(=O)C1=CN(Cc2ccccc2)C=CC1` [BNAH], the Km at OYERo2a (WT) [3] was determined as 517 ± 45 µM; at OYERo2a (WT) [4], 169 ± 12.4 µM; at OYERo2a (WT) [5], 230 ± 17.8 µM; on OYERo2a (WT) [6], 239 ± 24.3 µM.
Consider `CN1C(=O)C=CC1=O` [N-methylmaleimide], for which the Km was determined as 9.6 µM on OYERo2a (WT) [1] (180 μM NADPH, read-out: WT); 9.1 µM on OYERo2a (WT) [7] (180 μM NADPH, read-out: C25A); 30.4 µM at OYERo2a (WT) [2] (180 μM NADPH, read-out: C25S); 94.4 µM at OYERo2a (WT) [9] (180 μM NADPH, read-out: C25G). For the same molecule, the relative activity result on OYERo2a (WT) [8] was “while the OYERo2a became almost completely inactivated”.
Regarding `NC(=O)C1=CN([C@@H]2O[C@H](COP(=O)(O)OP(=O)(O)OC[C@H]3O[C@@H](n4cnc5c(N)ncnc54)[C@H](OP(=O)(O)O)[C@@H]3O)[C@@H](O)[C@H]2O)C=CC1` [NADPH], the Km was found to be 34.8 ± 2 µM at OYERo2a (WT) [1] (electron donor, 1 mM N-methylmaleimide, read-out: WT / NADPH); 121 ± 8.7 µM on OYERo2a (WT) [7] (electron donor, 1 mM N-methylmaleimide, read-out: C25A / NADPH); 76.9 ± 4.1 µM at OYERo2a (WT) [2] (electron donor, 1 mM N-methylmaleimide, read-out: C25S / NADPH); 55.2 ± 2.3 µM at OYERo2a (WT) [9] (electron donor, 1 mM N-methylmaleimide, read-out: C25G / NADPH).
